# Experimental data from patent US20060069132A1, “Azolecarboxamide herbicides” (priority 2004, published 2006).
# Like-named read-outs stand apart in the source and are kept apart here.
# Assays:
# pigweed = assay: Test B pre-/postemergence herbicide test; format: in vivo, Amaranthus retroflexus; details: for Plant response rating (0 to 100 scale), Pigweed: 0 is no effect, preemergence
# How it was run: (§1)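 Plants compared with untreated controls 13–15 days post-treatment and given a visual 0–100 injury score. Applications: preemergence to seeds; postemergence at 1- to 4-leaf (2–18 cm); paddy species flooded, 2-leaf stage. Vehicle non-phytotoxic, surfactant included.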
# large crabgrass = assay: Test B pre-/postemergence herbicide test; format: in vivo, Digitaria sanguinalis; details: for Plant response rating (0 to 100 scale), Crabgrass, Large: 0 is no effect, preemergence
# How it was run: as §1
# wild oat = assay: Test B postemergence herbicide test; format: in vivo, Avena fatua
# How it was run: (§2)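 After treating 2-leaf paddy plants or 2–18 cm postemergence plants (1 to 4 leaves) with formulated chemical, researchers kept them in a greenhouse for 13–15 days. Effects were judged visually versus controls: 0 indicates none, 100 total control.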
# rice = assay: Test B flooded paddy test; format: in vivo, Oryza sativa; details: 1000 g ai/ha, scale 0 to 100 (0 no effect, 100 complete control)
# How it was run: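 Formulated test chemicals went onto postemergence plants measuring 2 to 18 cm, at one to four leaves. For the paddy assay, species had reached two leaves. Scoring took place 13–15 days later by eye, relative to untreated plants, using 0 for no effect up to 100 for full control.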
# lambsquarters = assay: Test B pre-/postemergence herbicide test; format: in vivo, Chenopodium album; details: for Plant response rating (0 to 100 scale), Lambsquarters: 0 is no effect, preemergence
# How it was run: as §1
# blackgrass = assay: Test B postemergence herbicide test; format: in vivo, Alopecurus myosuroides
# How it was run: as §2
# wheat = assay: Test B postemergence herbicide test; format: in vivo, Triticum aestivum; set-up: key to Wheat plant response rating: 0 = no effect, 100 = complete control
# How it was run: as §2
# [1] = system: small flower umbrella sedge; assay: Test B flooded paddy test; format: in vivo, Cyperus difformis; details: 1000 g ai/ha, scale 0 to 100 (0 no effect, 100 complete control)
# How it was run: as §2
# Surinam grass = assay: Test B pre-/postemergence herbicide test; format: in vivo, Urochloa decumbens; details: for Plant response rating (0 to 100 scale), Surinam Grass: 0 is no effect, preemergence
# How it was run: as §1
# velvetleaf = assay: Test B pre-/postemergence herbicide test; format: in vivo, Abutilon theophrasti; details: for Plant response rating (0 to 100 scale), Velvetleaf: 0 is no effect, preemergence
# How it was run: as §1
# giant foxtail = assay: Test B pre-/postemergence herbicide test; format: in vivo, Setaria faberi; details: for Plant response rating (0 to 100 scale), Foxtail, Giant: 0 is no effect, preemergence
# How it was run: as §1
# morningglory = assay: Test B pre-/postemergence herbicide test; format: in vivo, Ipomoea coccinea; details: for Plant response rating (0 to 100 scale), Morningglory: 0 is no effect, preemergence
# How it was run: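 Flooded paddy rice and barnyardgrass were treated at the 2-leaf stage; upland plantings received compound either on sown seed or on 1- to 4-leaf seedlings. All were kept 13–15 days in a greenhouse and scored visually, 0–100, relative to untreated plants.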
# barnyardgrass = assay: Test B flooded paddy test; format: in vivo, Echinochloa crus-galli; details: 1000 g ai/ha, scale 0 to 100 (0 no effect, 100 complete control)
# How it was run: as §2
# ducksalad = assay: Test B flooded paddy test; format: in vivo, Heteranthera limosa; details: 1000 g ai/ha, scale 0 to 100 (0 no effect, 100 complete control)
# How it was run: as §2
# corn = assay: Test B pre-/postemergence herbicide test; format: in vivo, Zea mays; details: for Plant response rating (0 to 100 scale), Corn: 0 is no effect, preemergence
# How it was run: as §1
# [2] = 125 g ai/ha, 100 is complete control
# [3] = 125 g ai/ha, visual rating, scale 0 (no effect) to 100 (complete control), postemergence
# [4] = Postemergence, 500 g ai/ha, scale 0 (no effect) to 100 (complete control)
# [5] = postemergence, 500 g ai/ha, scale 0 to 100, 0 is no effect, 100 is complete control
smiles,measurement,setting,value
"CCOC(=O)c1cccc(NC(=O)c2nn(C(C)(C)C)nc2CC)c1 [Compound 360, ethyl 3-[[[2-(1,1-dimethylethyl)-5-ethyl-2H-1,2,3-triazol-4-yl]carbonyl]amino]benzoate]","Plant response rating (0 to 100 scale), Pigweed",pigweed; [2],20
same,pest or weed control at 125 g/ha,"pigweed; Amaranthus retroflexus, post-emergence, 336 h, 125 g ai/ha, visual rating, scale 0 (no effect) to 100 (complete control), read-out: Pigweed plant response rating",30%
same,pest or weed control at 500 g/ha,"pigweed; Amaranthus retroflexus, post-emergence, 336 h, postemergence, 500 g ai/ha, scale 0 to 100, 0 is no effect, 100 is complete control, read-out: Pigweed plant response rating",40%
same,pest or weed control at 500 g/ha,"pigweed; Amaranthus retroflexus, pre-emergence, 336 h, 500 g ai/ha, visual rating, 0 = no effect, 100 = complete control, read-out: Plant response rating, Pigweed",50%
same,"Plant response rating (0 to 100 scale), Crabgrass, Large",large crabgrass; [2],40
same,pest or weed control at 125 g/ha,"large crabgrass; Digitaria sanguinalis, post-emergence, 125 g ai/ha, visual rating, scale 0 (no effect) to 100 (complete control), read-out: Crabgrass, Large plant response rating",10%
same,pest or weed control at 500 g/ha,"large crabgrass; Digitaria sanguinalis, post-emergence, postemergence, 500 g ai/ha, scale 0 to 100, 0 is no effect, 100 is complete control, read-out: Crabgrass, Large plant response rating",20%
same,pest or weed control at 500 g/ha,"large crabgrass; Digitaria sanguinalis, pre-emergence, 500 g ai/ha, visual rating, 0 = no effect, 100 = complete control, read-out: Plant response rating, Crabgrass, Large",80%
same,pest or weed control at 125 g/ha,"wild oat; Avena fatua, post-emergence, 336 h, 125 g ai/ha, visual rating, scale 0 (no effect) to 100 (complete control), read-out: Oat, Wild plant response rating",40%
same,pest or weed control at 500 g/ha,"wild oat; Avena fatua, post-emergence, 336 h, postemergence, 500 g ai/ha, scale 0 to 100, 0 is no effect, 100 is complete control, read-out: Oat, Wild plant response rating",60%
same,plant injury at 1000 g/ha,"rice; Oryza sativa, 336 h, read-out: Rice plant response rating",50%
same,"Plant response rating (0 to 100 scale), Lambsquarters",lambsquarters; [2],0
same,pest or weed control at 125 g/ha,"lambsquarters; Chenopodium album, post-emergence, 336 h, 125 g ai/ha, visual rating, scale 0 (no effect) to 100 (complete control), read-out: Lambsquarters plant response rating",0%
same,pest or weed control at 500 g/ha,"lambsquarters; Chenopodium album, post-emergence, 336 h, postemergence, 500 g ai/ha, scale 0 to 100, 0 is no effect, 100 is complete control, read-out: Lambsquarters plant response rating",20%
same,pest or weed control at 500 g/ha,"lambsquarters; Chenopodium album, pre-emergence, 336 h, 500 g ai/ha, visual rating, 0 = no effect, 100 = complete control, read-out: Plant response rating, Lambsquarters",40%
same,pest or weed control at 125 g/ha,"blackgrass; Alopecurus myosuroides, post-emergence, 336 h, 125 g ai/ha, visual rating, scale 0 (no effect) to 100 (complete control), read-out: Blackgrass plant response rating",30%
same,pest or weed control at 500 g/ha,"blackgrass; Alopecurus myosuroides, post-emergence, 336 h, postemergence, 500 g ai/ha, scale 0 to 100, 0 is no effect, 100 is complete control, read-out: Blackgrass plant response rating",50%
same,plant injury at 125 g/ha,"wheat; Triticum aestivum, post-emergence, 336 h, 125 g ai/ha, visual rating, scale 0 (no effect) to 100 (complete control), read-out: Wheat plant response rating",30%
same,plant injury at 500 g/ha,"wheat; Triticum aestivum, post-emergence, 336 h, postemergence, 500 g ai/ha, scale 0 to 100, 0 is no effect, 100 is complete control, read-out: Wheat plant response rating",40%
same,pest or weed control at 1000 g/ha,"[1]; Cyperus difformis, 336 h, read-out: Sedge, Umbrella plant response rating",90%
same,"Plant response rating (0 to 100 scale), Surinam Grass",Surinam grass; [2],20
same,pest or weed control at 125 g/ha,"Surinam grass; Urochloa decumbens, post-emergence, 125 g ai/ha, visual rating, scale 0 (no effect) to 100 (complete control), read-out: Surinam Grass plant response rating",10%
same,pest or weed control at 500 g/ha,"Surinam grass; Urochloa decumbens, post-emergence, postemergence, 500 g ai/ha, scale 0 to 100, 0 is no effect, 100 is complete control, read-out: Surinam Grass plant response rating",30%
same,pest or weed control at 500 g/ha,"Surinam grass; Urochloa decumbens, pre-emergence, 500 g ai/ha, visual rating, 0 = no effect, 100 = complete control, read-out: Plant response rating, Surinam Grass",50%
same,"Plant response rating (0 to 100 scale), Velvetleaf",velvetleaf; [2],20
same,pest or weed control at 125 g/ha,"velvetleaf; Abutilon theophrasti, post-emergence, 336 h, 125 g ai/ha, visual rating, scale 0 (no effect) to 100 (complete control), read-out: Velvetleaf plant response rating",40%
same,pest or weed control at 500 g/ha,"velvetleaf; Abutilon theophrasti, post-emergence, 336 h, postemergence, 500 g ai/ha, scale 0 to 100, 0 is no effect, 100 is complete control, read-out: Velvetleaf plant response rating",50%
same,"Plant response rating (0 to 100 scale), Foxtail, Giant",giant foxtail; [2],50
same,pest or weed control at 125 g/ha,"giant foxtail; Setaria faberi, post-emergence, 336 h, 125 g ai/ha, visual rating, scale 0 (no effect) to 100 (complete control), read-out: Foxtail, Giant plant response rating",30%
same,pest or weed control at 500 g/ha,"giant foxtail; Setaria faberi, post-emergence, 336 h, postemergence, 500 g ai/ha, scale 0 to 100, 0 is no effect, 100 is complete control, read-out: Foxtail, Giant plant response rating",50%
same,pest or weed control at 500 g/ha,"giant foxtail; Setaria faberi, pre-emergence, 336 h, 500 g ai/ha, visual rating, 0 = no effect, 100 = complete control, read-out: Plant response rating, Foxtail, Giant",90%
same,"Plant response rating (0 to 100 scale), Morningglory",morningglory; [2],0
same,pest or weed control at 125 g/ha,"morningglory; Ipomoea, post-emergence, 336 h, 125 g ai/ha, visual rating, scale 0 (no effect) to 100 (complete control), read-out: Morningglory plant response rating",0%
same,pest or weed control at 500 g/ha,"morningglory; Ipomoea, post-emergence, 336 h, postemergence, 500 g ai/ha, scale 0 to 100, 0 is no effect, 100 is complete control, read-out: Morningglory plant response rating",10%
same,pest or weed control at 500 g/ha,"morningglory; Ipomoea, pre-emergence, 336 h, 500 g ai/ha, visual rating, 0 = no effect, 100 = complete control, read-out: Plant response rating, Morningglory",10%
same,pest or weed control at 1000 g/ha,"barnyardgrass; Echinochloa crus-galli, 336 h, read-out: Barnyardgrass plant response rating",40%
same,pest or weed control at 1000 g/ha,"ducksalad; Heteranthera limosa, 336 h, read-out: Ducksalad plant response rating",70%
same,"Plant response rating (0 to 100 scale), Corn",corn; [2],10
same,plant injury at 125 g/ha,"corn; Zea mays, post-emergence, 125 g ai/ha, visual rating, scale 0 (no effect) to 100 (complete control), read-out: Corn plant response rating",10%
same,plant injury at 500 g/ha,"corn; Zea mays, post-emergence, postemergence, 500 g ai/ha, scale 0 to 100, 0 is no effect, 100 is complete control, read-out: Corn plant response rating",20%
same,"Corn plant response rating (crop injury, 0 = no effect, 100 = complete kill) at 500 g/ha","corn; Zea mays, pre-emergence, 500 g ai/ha, visual rating, 0 = no effect, 100 = complete control",40%
C=CCNC(=O)c1cccc(NC(=O)c2nn(C(C)C)nc2CC)c1 [Compound 382],"Plant response rating (0 to 100 scale), Pigweed",pigweed; [2],50
same,Pigweed plant response rating,pigweed; [3],30
same,Pigweed plant response rating,pigweed; [4],40
same,"Plant response rating (0 to 100 scale), Crabgrass, Large",large crabgrass; [2],80
same,"Crabgrass, Large plant response rating",large crabgrass; [3],10
same,"Crabgrass, Large plant response rating",large crabgrass; [5],10
same,"Oat, Wild plant response rating",wild oat; [3],10
same,"Oat, Wild plant response rating",wild oat; [4],20
same,Rice plant response rating,rice,80
same,"Plant response rating (0 to 100 scale), Lambsquarters",lambsquarters; [2],100
same,Lambsquarters plant response rating,lambsquarters; [3],50
same,Lambsquarters plant response rating,lambsquarters; [4],70
same,Blackgrass plant response rating,blackgrass; [3],10
same,Blackgrass plant response rating,blackgrass; [5],30
same,Wheat plant response rating,wheat; [3],0
same,Wheat plant response rating,"wheat; 500 g ai/ha, scale 0 to 100, 0 no effect, 100 complete control, preemergence",80
same,Wheat plant response rating,wheat; [4],10
same,"Sedge, Umbrella plant response rating",[1],70
same,"Plant response rating (0 to 100 scale), Surinam Grass",Surinam grass; [2],50
same,Surinam Grass plant response rating,Surinam grass; [3],10
same,Surinam Grass plant response rating,Surinam grass; [4],10
same,"Plant response rating (0 to 100 scale), Velvetleaf",velvetleaf; [2],10
same,Velvetleaf plant response rating,velvetleaf; [3],10
same,Velvetleaf plant response rating,velvetleaf; [4],20
same,"Plant response rating (0 to 100 scale), Foxtail, Giant",giant foxtail; [2],80
same,"Foxtail, Giant plant response rating",giant foxtail; [3],0
same,"Foxtail, Giant plant response rating",giant foxtail; [5],10
same,"Plant response rating (0 to 100 scale), Morningglory",morningglory; [2],10
same,Morningglory plant response rating,morningglory; [3],20
same,Morningglory plant response rating,morningglory; [4],60
same,Barnyardgrass plant response rating,barnyardgrass,80
same,Ducksalad plant response rating,ducksalad,80
same,"Plant response rating (0 to 100 scale), Corn",corn; [2],0
same,Corn plant response rating,corn; [3],0
same,Corn plant response rating,corn; [5],0
